Assay results from PMC8903829 (eLife, 2022).
“And” between values parts separate entries of the source, which are not always exact repeats. Equal entries are not always repeated. “Also recorded” adds a separate entry of the source.

What was measured:
Type in all cases: cell-based
hNaV1.6 N1877S = target: T1, hNaV1.6 N1877S (Homo sapiens, UniProt Q9UQD0, N1877S); assay: Automated patch-clamp, patient-identified variant in Expi293F cells
T1 construct: expression vector containing the full-length cDNA coding for specific human and mouse sodium channel α-subunit; expressed in transfected cells; host or cells: Expi293F (transient, tetracycline-induced, pcDNA4/TO)
Protocol: (§1) For studies of mutant channels, cDNA plasmids in pcDNA4/TO Mammalian Expression Vector were transiently transfected into Expi293F cells stably expressing human FHF2b and human SCN1B subunit (polyclonal) background using ExpiFectamine 293 Transfection Kits (Gibco,Thermo Fisher Scientific CAT #: A14524). Induction was achieved using Tetracycline (Sigma Aldrich). Transfected cells were used in automated patch-clamp experiments 24 hours postinduction.
(§2) Inorm(CPD)=(ICPD−Icontrol)/(ITTX−Icontrol).

hNaV1.6 T767I = target: T2, hNaV1.6 T767I (Homo sapiens, UniProt Q9UQD0, T767I); assay: as above
T2 construct: expression vector containing the full-length cDNA coding for specific human and mouse sodium channel α-subunit; expressed in transfected cells; host or cells: Expi293F (transient, tetracycline-induced, pcDNA4/TO)
Protocol: as §1, §2

hNaV1.6 R1617Q = target: T3, hNaV1.6 R1617Q (Homo sapiens, UniProt Q9UQD0, R1617Q); assay: as above
T3 construct: expression vector containing the full-length cDNA coding for specific human and mouse sodium channel α-subunit; expressed in transfected cells; host or cells: Expi293F (transient, tetracycline-induced, pcDNA4/TO)
Protocol: as §1, §2

hNaV1.6 R1872W = target: T4, hNaV1.6 R1872W (Homo sapiens, UniProt Q9UQD0, R1872W); assay: as above
T4 construct: expression vector containing the full-length cDNA coding for specific human and mouse sodium channel α-subunit; expressed in transfected cells; host or cells: Expi293F (transient, tetracycline-induced, pcDNA4/TO)
Protocol: as §1, §2

hNaV1.6 R850Q = target: T5, hNaV1.6 R850Q (Homo sapiens, UniProt Q9UQD0, R850Q); assay: as above
T5 construct: expression vector containing the full-length cDNA coding for specific human and mouse sodium channel α-subunit; expressed in transfected cells; host or cells: Expi293F (transient, tetracycline-induced, pcDNA4/TO)
Protocol: as §1, §2

[1] = test system: glutamatergic pyramidal neurons from mouse layer five neocortex; assay: Current-clamp recording in brain slices, action-potential firing; details: for WT Cortical pyramidal neurons APs/1s: 0.25 μM, individual neurons
Protocol: Parasagittal cortical brain slices were prepared from> P21 mice using standard procedures (adapted from Tai et al., PNAS 2014). Briefly, the mouse was deeply anaesthetized with isoflurane and decapitated. The brain was removed and placed into chilled artificial cerebrospinal fluid (aCSF) solution containing (in mM): 125 NaCl, 25 NaHCO3, 2.5 KCl, 1.25 NaH2PO4, 2 CaCl2, 2 MgCl2, 10 d-glucose, pH 7.3, osmolarity adjusted to ~306 mOsm using sucrose. All solutions were saturated with 95% O2 and 5% CO2 constantly perfused with 95% O2/5% CO2. Slices with a thickness of 400 µm were prepared using a vibratome (Ted Pella, Inc). Following sectioning, the slices were placed in a holding chamber and incubated in a water bath at 34 °C for 15 min. The brain slices were removed from the water bath and held at room temperature for 60 min prior to recording.
All experiments involving rodent subjects were performed in accordance with the guidelines of the Canadian Council on Animal Care (CCAC). Following a 60-min incubation at room temperature, a brain slice was selected and placed on the stage of an upright microscope (SliceScope Pro 2000, Scientifica). The slice was constantly perfused with room temperature aCSF, containing 0.1% DMSO as a vehicle control, and oxygenated with 95% O2/5% CO2.The slice was visualized using brightfield microscopy, and a healthy neuron was selected from neocortical layer 5. […] Stimulation was applied in current-clamp mode, and consisted of a series of 1000ms square pulses, beginning at –20 pA and increasing by +20 pA increments (3000ms between pulses).
The slice was incubated in circulating compound for 10 min before repeating the series of square pulse stimulations. Working stock solutions were prepared in DMSO at a concentration of 20 mM.
All data analysis was done offline using ClampFit 10.7 (Molecular Devices). Data are presented as a mean ± SEM. For each sweep, the number of evoked APs was counted, and plotted as a function of current injection (beginning with –20 pA). […] Statistical significance was assessed using paired, two-way, student’s t-test applied at each current injection level with significance considered p < 0.05.

T4 sequence (Q9UQD0 whole entry R1872W): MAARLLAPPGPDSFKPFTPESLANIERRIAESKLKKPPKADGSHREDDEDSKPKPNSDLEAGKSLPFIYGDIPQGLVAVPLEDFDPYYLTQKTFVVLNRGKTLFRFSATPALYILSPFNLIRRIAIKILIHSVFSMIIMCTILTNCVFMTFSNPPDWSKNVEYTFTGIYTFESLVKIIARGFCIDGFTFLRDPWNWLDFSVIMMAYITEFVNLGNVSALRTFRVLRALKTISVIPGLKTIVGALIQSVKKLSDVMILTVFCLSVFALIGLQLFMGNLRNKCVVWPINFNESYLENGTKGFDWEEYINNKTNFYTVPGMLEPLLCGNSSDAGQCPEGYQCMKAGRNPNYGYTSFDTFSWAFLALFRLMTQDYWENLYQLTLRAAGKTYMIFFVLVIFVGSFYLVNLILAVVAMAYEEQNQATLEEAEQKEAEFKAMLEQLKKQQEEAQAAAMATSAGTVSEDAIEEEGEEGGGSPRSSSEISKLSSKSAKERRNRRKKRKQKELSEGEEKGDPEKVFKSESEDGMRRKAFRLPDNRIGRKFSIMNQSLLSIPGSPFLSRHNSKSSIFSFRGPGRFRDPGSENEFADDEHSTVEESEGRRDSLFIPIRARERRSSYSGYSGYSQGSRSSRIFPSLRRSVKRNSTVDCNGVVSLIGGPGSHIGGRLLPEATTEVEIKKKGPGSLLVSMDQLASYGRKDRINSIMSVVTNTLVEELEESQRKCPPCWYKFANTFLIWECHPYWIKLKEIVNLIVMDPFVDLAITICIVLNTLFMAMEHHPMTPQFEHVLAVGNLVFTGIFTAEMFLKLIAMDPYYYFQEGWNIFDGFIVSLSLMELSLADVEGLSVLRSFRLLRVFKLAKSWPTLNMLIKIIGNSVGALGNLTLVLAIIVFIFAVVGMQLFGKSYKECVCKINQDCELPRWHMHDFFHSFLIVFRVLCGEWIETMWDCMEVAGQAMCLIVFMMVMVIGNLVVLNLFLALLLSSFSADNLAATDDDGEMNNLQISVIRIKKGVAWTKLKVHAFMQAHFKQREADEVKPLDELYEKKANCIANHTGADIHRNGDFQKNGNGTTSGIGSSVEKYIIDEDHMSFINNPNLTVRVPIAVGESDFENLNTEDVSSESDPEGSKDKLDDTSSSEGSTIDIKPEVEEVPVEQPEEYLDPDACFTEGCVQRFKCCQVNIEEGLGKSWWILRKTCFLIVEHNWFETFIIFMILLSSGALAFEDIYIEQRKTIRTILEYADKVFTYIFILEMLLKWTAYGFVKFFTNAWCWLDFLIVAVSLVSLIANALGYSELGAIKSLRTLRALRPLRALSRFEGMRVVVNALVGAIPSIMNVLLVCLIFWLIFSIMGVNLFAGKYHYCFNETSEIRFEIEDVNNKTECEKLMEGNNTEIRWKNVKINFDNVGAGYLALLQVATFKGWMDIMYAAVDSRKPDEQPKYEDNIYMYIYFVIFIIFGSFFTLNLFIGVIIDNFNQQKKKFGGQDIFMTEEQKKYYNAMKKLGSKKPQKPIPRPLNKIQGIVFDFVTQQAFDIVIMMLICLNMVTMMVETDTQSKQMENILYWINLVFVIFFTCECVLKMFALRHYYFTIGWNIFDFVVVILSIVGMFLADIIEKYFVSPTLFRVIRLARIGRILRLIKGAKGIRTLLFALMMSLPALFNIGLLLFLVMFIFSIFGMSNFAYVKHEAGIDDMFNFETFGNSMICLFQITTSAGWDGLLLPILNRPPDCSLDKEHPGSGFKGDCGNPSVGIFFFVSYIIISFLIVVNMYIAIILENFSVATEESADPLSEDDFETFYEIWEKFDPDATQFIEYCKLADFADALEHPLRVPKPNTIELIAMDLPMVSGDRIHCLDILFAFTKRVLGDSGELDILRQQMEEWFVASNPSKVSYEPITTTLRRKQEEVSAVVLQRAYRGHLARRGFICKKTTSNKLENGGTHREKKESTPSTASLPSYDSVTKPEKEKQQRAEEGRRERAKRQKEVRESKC
T1 sequence (Q9UQD0 whole entry N1877S): as the sequence (Q9UQD0 whole entry R1872W) above, with W1872R, N1877S counted along it
T2 sequence (Q9UQD0 whole entry T767I): as the sequence (Q9UQD0 whole entry R1872W) above, with T767I, W1872R counted along it
T3 sequence (Q9UQD0 whole entry R1617Q): as the sequence (Q9UQD0 whole entry R1872W) above, with R1617Q, W1872R counted along it
T5 sequence (Q9UQD0 whole entry R850Q): as the sequence (Q9UQD0 whole entry R1872W) above, with R850Q, W1872R counted along it

## Cc1cc(S(=O)(=O)Nc2cscn2)c(F)cc1N(C)[C@H]1CCN(Cc2ccccc2)C1 [NBI-921352]
hNaV1.6 N1877S; -5 LogM
  h1.6-N1877S 145756 norm, Mean: 0.94
hNaV1.6 N1877S; -5.47716 LogM
  h1.6-N1877S 145756 norm, Mean: 0.93
hNaV1.6 N1877S; -5.95429 LogM
  h1.6-N1877S 145756 norm, Mean: 0.88
hNaV1.6 N1877S; -6.4318 LogM
  h1.6-N1877S 145756 norm, Mean: 0.84
hNaV1.6 N1877S; -6.91009 LogM
  h1.6-N1877S 145756 norm, Mean: 0.68
hNaV1.6 N1877S; -7.38722 LogM
  h1.6-N1877S 145756 norm, Mean: 0.53
hNaV1.6 N1877S; -7.85387 LogM
  h1.6-N1877S 145756 norm, Mean: 0.27
hNaV1.6 N1877S; -8.33 LogM
  h1.6-N1877S 145756 norm, Mean: 0.1
hNaV1.6 T767I
  IC50: 31 nM
hNaV1.6 T767I; -5 LogM
  h1.6-T767I 145756, Mean: 0.91
hNaV1.6 T767I; -5.47716 LogM
  h1.6-T767I 145756, Mean: 0.92
hNaV1.6 T767I; -5.95429 LogM
  h1.6-T767I 145756, Mean: 0.86
hNaV1.6 T767I; -6.4318 LogM
  h1.6-T767I 145756, Mean: 0.86
hNaV1.6 T767I; -6.91009 LogM
  h1.6-T767I 145756, Mean: 0.75
hNaV1.6 T767I; -7.38722 LogM
  h1.6-T767I 145756, Mean: 0.58
hNaV1.6 T767I; -7.85387 LogM
  h1.6-T767I 145756, Mean: 0.19
hNaV1.6 T767I; -8.33 LogM
  h1.6-T767I 145756, Mean: 0.1
hNaV1.6 R1617Q; -5 LogM
  h1.6-R1617Q 145756, Mean: 0.85
hNaV1.6 R1617Q; -6 LogM
  h1.6-R1617Q 145756, Mean: 0.64
hNaV1.6 R1617Q; -7 LogM
  h1.6-R1617Q 145756, Mean: 0.24
hNaV1.6 R1617Q; -8 LogM
  h1.6-R1617Q 145756, Mean: 0.07
hNaV1.6 R1872W; -5 LogM
  h1.6-R1872W 145756, Mean: 0.9
hNaV1.6 R1872W; -6 LogM
  h1.6-R1872W 145756, Mean: 0.87
hNaV1.6 R1872W; -7 LogM
  h1.6-R1872W 145756, Mean: 0.55
hNaV1.6 R1872W; -8 LogM
  h1.6-R1872W 145756, Mean: 0.13
hNaV1.6 R850Q
  IC50: 21 nM
hNaV1.6 R850Q; -5 LogM
  h1.6-R850Q 145756, Mean: 0.91
hNaV1.6 R850Q; -5.47716 LogM
  h1.6-R850Q 145756, Mean: 0.88
hNaV1.6 R850Q; -5.95429 LogM
  h1.6-R850Q 145756, Mean: 0.86
hNaV1.6 R850Q; -6.4318 LogM
  h1.6-R850Q 145756, Mean: 0.83
hNaV1.6 R850Q; -6.91009 LogM
  h1.6-R850Q 145756, Mean: 0.79
hNaV1.6 R850Q; -7.38722 LogM
  h1.6-R850Q 145756, Mean: 0.58
hNaV1.6 R850Q; -7.85387 LogM
  h1.6-R850Q 145756, Mean: 0.43
hNaV1.6 R850Q; -8.33 LogM
  h1.6-R850Q 145756, Mean: 0.13
[1]; 0.25 µM NBI-921352
  effect on action-potential firing, pyramidal neurons: decreased the maximum firing rate; also recorded: reduced action-potential spiking
[1]; 200 pA current injected
  WT Cortical pyramidal neurons APs/1s: 0 APs/1s and 12 APs/1s and 13 APs/1s
[1]; current injected 0 pA
  WT Cortical pyramidal neurons APs/1s: 0 APs/1s
[1]; current injected 20 pA
  WT Cortical pyramidal neurons APs/1s: 0 APs/1s
[1]; current injected 40 pA
  WT Cortical pyramidal neurons APs/1s: 0 APs/1s
[1]; current injected 60 pA, row
  WT Cortical pyramidal neurons APs/1s: 0 APs/1s and 1 APs/1s and 2 APs/1s
[1]; current injected 80 pA, row
  WT Cortical pyramidal neurons APs/1s: 0 APs/1s and 4 APs/1s and 6 APs/1s
